In PubChem BioAssay (NCI):
Where “and” joins values, the source holds several entries; their conditions need not be identical. Equal entries are not always repeated.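 Step 1: Grow cells in 96-well plates. Step 2: Expose to compound for 48 hours at 5 concentrations. Step 3: Interpolate endpoints linearly; if unreached, use highest concentration. GI50 marks 50% less growth. Definition used: TGI = concentration required for complete inhibition of growth.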

Experiments:
Test in all cases: NCI tumour cell line growth inhibition, 48 h
[1] = tested on: DMS 114 small cell lung
[2] = tested on: DMS 273 small cell lung
[3] = tested on: HOP-18 NSCLC
[4] = tested on: KM20L2 colon
[5] = tested on: M19-MEL melanoma
[6] = tested on: RXF-631 renal
[7] = tested on: SNB-78 CNS
[8] = tested on: XF 498 CNS
[9] = tested on: MDA-N
[10] = tested on: P388 leukemia
[11] = tested on: P388/ADR leukemia

| SMILES | TGI [1] | TGI [2] | TGI [3] | TGI [4] | TGI [5] | TGI [6] | TGI [7] | TGI [8] [µM] | TGI [9] [µM] | also measured |
| --- | --- | --- | --- | --- | --- | --- | --- | --- | --- | --- |
| Nc1ccc2n[se]nc2c1 | > 100 µM | > 100 µM | > 100 µM | > 100 µM | > 100 µM | > 100 µM | > 100 µM | > 100 | – | – |
| Cc1ccc(CNc2ccc(Br)cc2)cc1 | – | – | – | – | – | – | – | – | > 100 | – |
| CCCCC1=CSC(c2ccccc2)=C(c2ccccc2)S1 | > 100 µM | > 100 µM | > 100 µM | > 100 µM | > 100 µM | > 100 µM | > 100 µM | – | – | – |
| COC(=O)CCSC(=O)Nc1ccc(N=Nc2ccccc2)cc1 | > 100 µM | > 100 µM | > 100 µM | 76.3 µM | > 100 µM | > 100 µM | > 100 µM | > 100 | – | – |
| Nc1nnc2c(-c3ccccc3)[nH]nc2n1 | > 100 µM | > 100 µM | – | > 100 µM | – | – | > 100 µM | – | – | – |
| Cc1ccc(NC(=O)CCc2nc(=S)[nH][nH]2)cc1 | > 100 µM | > 100 µM | > 100 µM | > 100 µM | > 100 µM | > 100 µM | > 100 µM | > 100 | – | – |
| CCCn1c2c(c3ccccc3c1=O)C(=O)c1ccccc1-2 | – | – | – | – | – | – | – | – | > 100 | – |
| O=[N+]([O-])c1ccc(C2=Nc3ccccc3S(=O)C(c3ccccc3)C2)cc1 (stereo not drawn) | 42.8 µM | 52.5 µM | > 100 µM | 57.8 µM | 29.6 µM | 40.1 µM | – | 47.9 | – | – |
| CCOc1ccccc1N=Nc1ccc2oc(=O)c(C(C)=O)cc2c1 | > 100 µM | > 100 µM | – | > 100 µM | > 100 µM | – | > 100 µM | > 100 | – | – |
| CC1CC2C3CCC4=CC(=O)C=CC4(C)C3(F)C(O)CC2(C)C1(O)C(=O)COP(=O)(O)O (stereo not drawn) | – | > 100 µM | > 100 µM | > 100 µM | > 100 µM | – | > 100 µM | > 100 | 47.4 | – |
| CC(=O)OCC1OC(n2c(=S)n(-c3ccc([N+](=O)[O-])cc3)c(=O)c3ccccc32)C(OC(C)=O)C(OC(C)=O)C1OC(C)=O (stereo not drawn) | > 100 µM and 53.8 µM | 57.3 µM | 64.4 µM | > 100 µM and 87.7 µM | > 100 µM and 55.4 µM | 57.7 µM and 51 µM | > 100 µM and 74.5 µM | – | 82.3 | GI50 [1]: 23.7 µM and 18.1 µM; GI50 [5]: 29.7 µM and 16.8 µM; GI50 [7]: 34.8 µM and 24.1 µM |
| COC(=O)C(=O)Cc1nc2ccccc2s1 | > 100 µM | > 100 µM | > 100 µM | > 100 µM | > 100 µM | – | > 100 µM | – | – | – |
| Cn1c(CBr)nc2c1C(=O)c1nc(CBr)[nH]c(=O)c1C2=O | > 100 µM | – | > 100 µM | > 100 µM | 68.6 µM | > 100 µM | – | – | – | – |
| CC(C)(CN1C(=O)C(Cl)=C(Cl)C1=O)CN1C(=O)C(Cl)=C(Cl)C1=O | 25.2 µM | 26.8 µM | 36.1 µM | 40 µM | 25 µM | – | 45.1 µM | – | – | – |
| O=C(O/N=C1\CCCC\C1=C/c1ccccc1)c1ccc([N+](=O)[O-])cc1 | > 100 µM | > 100 µM | > 100 µM | > 100 µM | > 100 µM | > 100 µM | > 100 µM | – | – | – |
| COc1cccc2c1-c1nc(N)c3c(OC)cccc3c1C2=O | – | – | – | – | – | – | – | – | > 100 | – |
| O=S1(=O)N2CN3CN(C2)CN1C3 | 55.3 µM | > 31.6 µM and 142 µM | > 86.4 µM and 91.6 µM | 180 µM | 337 µM | – | 118 µM | – | – | GI50 [2]: 32.8 µM; GI50 [3]: 24.7 µM; GI50 [4]: 37.1 µM; TGI [10]: 47.6 µM; TGI [11]: 44 µM |
| Cc1ccc(NC(=O)CCCC(=O)CC(=O)c2ccc(Br)cc2)cc1 | > 100 µM | > 100 µM | > 100 µM | > 100 µM | > 100 µM | > 100 µM | > 100 µM | – | – | – |
| C=C1C[C@H]2C=Nc3cc(OCCCOc4cc5c(cc4OC)C(=O)N4CC(=C)C[C@H]4C=N5)c(OC)cc3C(=O)N2C1 | – | – | – | – | – | – | – | – | 0.0256 | – |
| N#CCCn1[nH]c(=O)c(Cl)c(Cl)c1=O | 36.5 µM | – | 30.6 µM | 29.7 µM | 42 µM | 37.1 µM | 41.9 µM | 29.6 | – | – |
| CC1(C)CCC(Sc2ccccc2)O1 (stereo not drawn) | > 100 µM | > 100 µM | – | > 100 µM | > 100 µM | – | > 100 µM | > 100 | – | – |
| O=C(O)C1=C/C(=C(/c2ccccc2)c2cc(C(=O)O)c(O)c3ccccc23)c2ccccc2C1=O | – | – | – | – | – | – | – | – | > 100 | – |
| CC(C)/C=C1\CCC(CN(C)C)C1=O (stereo not drawn) | 10.3 µM | – | 8.72 µM | 28.6 µM | 33.7 µM | – | 23.8 µM | 4.17 | 7.78 | – |
| O=C1c2ccccc2C(=O)c2cc3c(cc21)CS(=O)C3 | > 100 µM | > 100 µM | > 100 µM | > 100 µM | > 100 µM | – | – | – | – | – |
| O=C(c1ccc(O)cc1O)C1C(c2ccc(O)cc2)OC(c2ccc(O)cc2)C1C(=O)c1ccc(O)cc1O (stereo not drawn) | – | 29.5 µM | – | > 100 µM | 36.5 µM | – | > 100 µM | 32.3 | – | – |
